Several values for one entry are separate records, joined by “and”; a condition that tells them apart may be missing. Equal entries are not always repeated. No end group written: not given here.
Columns and labels:
[1] = tested on: neonatal rat CMs (heart cells); test: Preliminary 3D cell encapsulation studies in hydrogels; assay type: cell-based, rat (Sprague-Dawley); settings: encapsulated, 1 to 4 days of 3D culture
Experimental: The lyophilized form of the peptide-modified Az-chitosan was dissolved in sterile 0.9% saline at 12 mg/mL. CMs (2.5×10^6) were suspended in 15 μL of CM culture media with 30% serum for 15 minutes on ice. These cells were then suspended in 35 μL of the hydrogel and crosslinked in the transwell inserts of the 96 well plates. The cells were cultivated in the CM culture medium with 10% FBS for up to 4 days.

human iPS cells BJ1D = test: iPS colony formation / cloning efficiency after complete dissociation at clonal density; assay type: cell-based
Experimental: (§1) The human iPS cells (BJ1D and 0901B) were obtained from the Ontario iPSC Facility and used following the hiPS cell research guidelines of the University of Toronto as described by Hotta et al. Nat. Protoc. 4, 1828-1844 (2009)), unless specified otherwise. Cells were cultured on a feeder layer of MEF cells (Mount Sinai Hospital Toronto, inactivated with 10 μg/ml mitomycin C and seeded at 1.8×10^5 per 3.5 cm dish). For single cell cultures, hiPS cell colonies were dissociated in 0.25% Trypsin-EDTA (Invitrogen) for 5 min, followed by trituration with a pipette. To ensure a single-cell suspension, the dissociated cells were passed through a 40 μm cell strainer (BD Falcon) and seeded onto MEF plates at 10 cells/ml, 10 cm plates. Cells were allowed to grow for 7 days and the total number of colonies was counted. In the treated groups, QHREDGS (Biomatik) or DGQESHR (Biomatik) dissolved in PBS (Lonza), were added at the reported concentrations to culture media at the onset of the first treatment passage and replenished with each media change. Media was changed by 100% every day. Peptides and controls were included during dissociation and passaging. Cells were analyzed after 5 passages in continuous treatment with 50 μM QHREDGS, 50 μM DGQESHR, or PBS, unless specified otherwise.
(§2) iPS cells, BJ1D or 0901B were treated with 50 μM of QHREDGS peptide, or 50 μM DGQESHR scrambled peptide in PBS with a PBS treated control for five passages as a preparation for passage by trypsin. Cells were trypsinized and plated at a clonal density of 10 cells/ml for one week and the number of colonies were counted.
(§3) After 5 passages in pre-treatment with 50 μM QHREDGS, or controls and complete dissociation (trypsinized), human iPS cells, BJ1D or 0901B cells, were plated on a mouse embryonic fibroblast (MEF) feeder layer at low density (100 cells/plate, 10 cm plate) in maintenance medium containing 50 μM QHREDGS, PBS, or 50 μM DGQESHR scrambled peptide. After one-week in culture, untreated or DGQESHR (scrambled peptide) treated groups generated few colonies, whereas QHREDGS treated groups for both BJ1D or 0901B cells produced many large colonies (˜15 times more than the controls) (see FIG. 13A/B, respectively). The colonies were positive for Oct4, a marker for the undifferentiated state. The cloning efficiency, based on ratio of Oct4+ colonies formed per initially seeded human iPS cells, was 27+/−7.1% and 2.5+/−0.6% for BJ1D and 48+/−9.4% and 22.3+/−1.9 for 0901B in the presence and absence of QHREDGS, respectively. […] Thus, treatment with QHREDGS supports single-cell culture of human iPS cells through the promotion of colony formation.

human iPS cells 0901B = test: as above; assay type: cell-based
Experimental: as §1, §2, §3

[2] = tested on: Human ESC-derived cardiac cells (Hes2); test: Caspase 3/7 assay of human ESC-derived cardiac cells; assay type: cell-based; settings: 50 μM, FIG. 20
Experimental: (§4) Human ESC-derived cardiac cell culture, were derived from Day 20 EBs, consisting of greater than 50% cardiomyocytes obtained by directed differentiation of human ES (Hes2) cells as described by Yang et al. (Nature 453, 524-528 (2008)). EBs were dissociated using Collagenase I (Invitrogen) for 2 hrs and 0.05% Trypsin-EDTA (Invitrogen) for 5 min and plated at 40000 cells/cm^2 onto 0.2% gelatin-coated plates in Stempro 34 medium supplemented with VEGF (10 ng/ml) and DKK1 (150 ng/ml). Cells were cultured in the presence of 50 μM QHREDGS, 50 μM DGQESHR (Biomatik) or PBS until they formed a beating monolayer, around 10 days. Peptides were replenished during media changes every 3 days. 100 μM H2O2 (Sigma, dissolved in PBS) was added to culture media for 10 min, washed, and analyzed immediately for CFDA-Live/PI-Dead. Live cells were counted using the cell counter plug in for ImageJ. 0.5 μM or 2.5 μM taxol (Sigma, dissolved in DMSO) was added to culture media for 24 hrs, and the extent of apoptosis was analyzed immediately using the Apo-ONE Homogeneous Caspase Assay (Promega), or TUNEL assay (Roche) as described above. A PBS control was used for H2O2 and DMSO control was used for taxol.

[3] = tested on: Human ESC-derived cardiac cells (Hes2); test: H2O2 exposure, CFDA-Live/PI-Dead of human ESC-derived cardiac cells; assay type: cell-based; settings: 50 μM, 100 μM H2O2 10 min, FIG. 19
Experimental: as §4

human iPS cells [4] = test: iPS cell colony number following passage; assay type: cell-based; settings: vs PBS control, FIG. 11
Experimental: as §1
To determine the optimal concentration of QHREDGS for iPSC expansion, a dose-response experiment was performed. Cells were treated with 5 μM, 50 μM, or 500 μM of QHREDGS peptide, or 500 μM scrambled peptide (DGQESHR) in PBS with a PBS treated control for five passages and stained for CFDA-Live/PI-Dead. Live cells were counted using the cell counter plug in for ImageJ.

[5] = tested on: Rat neonatal cardiomyocytes; test: Doxorubicin induced apoptosis and caspase activation (Western blot); assay type: cell-based; settings: 1 d, doses as low as 5 μM, FIG. 5B,C
Experimental: Rat neonatal cardiomyocytes were given doxorubicin (Dox) to induce apoptosis and PBS or peptide QHREDGS (1 d), Western blotting was conducted and levels assessed via densitometric analysis (Scion Image software).

human iPS cells [6] = test: EB differentiation of treated iPS cells; assay type: cell-based; settings: after 5 passages of treatment, EB protocol
Experimental: Following 5 passages in continuous treatment, iPS cells were collected and differentiated into embryoid bodies (EB) containing cells of all three germ layers as described Itskovitz-Eldor, J. et al. Mol. Med. 6, 88-95 (2000). For further differentiation and analysis, EBs were plated onto 0.2% gelatin coated plates for another 10 days for attachment and fixed in 4% para-formaldehyde (Sigma) for immunohistochemistry.

[7] = 50 μM, 100 cells/plate on MEF, one week
[8] = in the presence of 50 μM QHREDGS

## Az-chitosan-QHREDGS: QHREDGS peptide covalently conjugated to Az-chitosan by EDC chemistry (also: covalently conjugated to Az-chitosan by EDC chemistry, site not given here)
[1]
  heart cell survival and elongation in 3D hydrogel: heart cell elongation

## QHREDGS (angiopoietin 1 peptide)
Human iPS cells BJ1D; [7]
  colonies relative to controls: ~15 times more than the controls
Human iPS cells BJ1D; 50 μM, trypsinized, clonal density, one week, FIG. 13A
  number of colonies: increased significantly
Human iPS cells BJ1D; [8]
  cloning efficiency (Oct4+ colonies per initially seeded cells): 27+/−7.1% and 27%
Human iPS cells 0901B; [7]
  colonies relative to controls: ~15 times more than the controls
Human iPS cells 0901B; 50 μM, trypsinized, clonal density, one week, FIG. 13B
  number of colonies: increased significantly
Human iPS cells 0901B; [8]
  cloning efficiency (Oct4+ colonies per initially seeded cells): 48+/−9.4% and 48%
[2]
  reduction of basal apoptosis levels in cardiac cells (Caspase 3/7): 2 fold
[3]
  viability of cardiac cells (% Live-CFDA/Dead-PI): enhanced viability
Human iPS cells [4]; 50 μM
  increase in colony number: 14.3%
Human iPS cells [4]; 50 μM, on average
  increase in colony number: greater than 10 colonies/well
Human iPS cells [4]; 500 μM
  increase in colony number: 40%
[5]
  activation of caspases-3 and -6: blocked
Human iPS cells [6]
  differentiation into neural, mesodermal and endodermal cells: retained the competence to differentiate
